The record followed here is patent US20090202569A1, “Prophylactic/Therapeutic Agent for Cancer” (priority 2006, published 2009).

Test [1] has as its system lung cancer cell strain NCI-H23. Put plainly: Combined effect of ACS inhibitor and FAS inhibitors, cell survival rate by the Sulforhodamine B method. The test is classed as cell-based. The following applies: 3 days, n=3, 100% = without drug treatment. On the technique in general: In SRB staining, fixed cells bind dye roughly in proportion to their protein.
Another test relates to SF268/mock cells. Put plainly: FAS inhibitor sensitivity of control cells, surviving cells counted by trypan blue exclusion. The class given is cell-based, human. As to conditions: 15 μg/ml, treated for 24 hours.
The next test has as its system SF268/ACS5 cells. Put plainly: FAS inhibitor sensitivity of cells with stable high ACS5 expression, surviving cells counted by trypan blue exclusion. The class given is cell-based, human. As to conditions: 15 μg/ml, treated for 24 hours.

Take `CCCC=CCC=CC=CC=NNN=O` [Triacsin C, 2,4,7-undecatrienal nitrosohydrazone]: in test [1] (NCI-H23, 0.3 μM Triacsin C alone), the cell survival rate came to 56.3±0.5%.
With `C/C=C/C/C=C/CCC(=O)[C@H]1O[C@H]1C(N)=O` [Cerulenin, 2R,3S,E,E)-2,3-epoxy-4-oxo-7,10-dodecadienamide], the results for the growth suppression effect result with SF268/mock cells and in the test with SF268/ACS5 cells were “clear growth suppression effect” and “no growth suppression effect”, respectively. Besides, the cell survival rate in test [1] (NCI-H23, 2 μM FAS inhibitor alone) turned out to be 70.2±7.9%.
